Measurements taken from ChEMBL document CHEMBL1201862, “PubChem BioAssay data set” (2004).
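Step 1: Grow cells in 96-well plates. Step 2: Expose to compound for 48 hours at 5 concentrations. Step 3: Interpolate endpoints linearly; if unreached, use highest concentration. Abbreviation: GI50, concentration required for 50% inhibition of growth.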 The source made the active and inactive calls. Cut-off read from the data, not from the text of the source: active = GI50 up to about 1.1 µM and inactive = higher.

Legend:
Assay in all cases: DTP human tumour cell line panel, 48 h
COLO 205 = test system: COLO 205
HOP-92 = test system: HOP-92
SF-539 = test system: SF-539
HCC 2998 = test system: HCC 2998
LOX IMVI = test system: LOX IMVI
A549 = test system: A549
HOP-62 = test system: HOP-62
NCI-H23 = test system: NCI-H23
BT-549 = test system: BT-549
OVCAR-8 = test system: OVCAR-8
HCT-15 = test system: HCT-15
SNB-19 = test system: SNB-19
UO-31 = test system: UO-31
CAKI-1 = test system: CAKI-1
SR = test system: SR
MCF7 = test system: MCF7
CCRF-CEM = test system: CCRF-CEM
UACC-257 = test system: UACC-257
NCI/ADR-RES = test system: NCI/ADR-RES
RPMI-8226 = test system: RPMI-8226

Row | SMILES | GI50 (COLO 205) | GI50 (HOP-92) | GI50 (SF-539) | GI50 (HCC 2998) | GI50 (LOX IMVI) | GI50 (A549) | GI50 (HOP-62) | GI50 (NCI-H23) | GI50 (BT-549) | GI50 (OVCAR-8) | GI50 (HCT-15) [µM] | GI50 (SNB-19) | GI50 (UO-31) | GI50 (CAKI-1) | GI50 (SR) | GI50 (MCF7) | GI50 (CCRF-CEM) | GI50 (UACC-257) | GI50 (NCI/ADR-RES) | GI50 (RPMI-8226)
1 | Cc1sc(Nc2ccc(Nc3nc(-c4ccccc4)c(C)s3)cc2)nc1-c1ccccc1 | 16.2 µM (inactive) | > 100 µM (inactive) | 26.3 µM (inactive) | 16.9 µM (inactive) | 40.6 µM (inactive) | 30.1 µM (inactive) | > 100 µM (inactive) | 28.7 µM (inactive) | > 100 µM (inactive) | > 100 µM (inactive) | 44.8 | > 100 µM (inactive) | 89.7 µM (inactive) | 88.1 µM (inactive) | 20.9 µM (inactive) | 21.8 µM (inactive) | 2.29 µM (inactive) | 43.1 µM (inactive) | 41.4 µM (inactive) | 
2 | CCOC(=O)c1c(C)noc1/N=N/N(CCO)CCO | 23.1 µM (inactive) | 24.9 µM (inactive) |  | 22.3 µM (inactive) | 32.4 µM (inactive) | 36.8 µM (inactive) | 32.6 µM (inactive) | 30.3 µM (inactive) | 35.9 µM (inactive) | 38.3 µM (inactive) | 41.5 | 37.2 µM (inactive) | 25.5 µM (inactive) | 61 µM (inactive) | 19.9 µM (inactive) | 29.1 µM (inactive) | 16.9 µM (inactive) | 25.6 µM (inactive) | 35.4 µM (inactive) | 
3 | C/C=C(C)/C=C/CC(C)CCC=C(C)C (stereo not drawn) | > 100 µM (inactive) | > 100 µM (inactive) | > 100 µM (inactive) |  | > 100 µM (inactive) | > 100 µM (inactive) |  |  | > 100 µM (inactive) | > 100 µM (inactive) | > 100 | > 100 µM (inactive) | > 100 µM (inactive) | > 100 µM (inactive) | > 100 µM (inactive) | > 100 µM (inactive) | > 100 µM (inactive) | > 100 µM (inactive) | > 100 µM (inactive) | 
4 | N=C(Cc1ccccc1)NCC(=O)O | > 100 µM (inactive) | > 100 µM (inactive) |  | > 100 µM (inactive) | > 100 µM (inactive) | > 100 µM (inactive) | > 100 µM (inactive) | > 100 µM (inactive) | > 100 µM (inactive) | > 100 µM (inactive) | > 100 | > 100 µM (inactive) | > 100 µM (inactive) | > 100 µM (inactive) |  | > 100 µM (inactive) | > 100 µM (inactive) | > 100 µM (inactive) | > 100 µM (inactive) | > 100 µM (inactive)
5 | Cc1c2ccccc2cc2cccc[n+]12 | 19.8 µM (inactive) |  | 32.1 µM (inactive) | 15.2 µM (inactive) | 27.8 µM (inactive) | 6.82 µM (inactive) | 21.6 µM (inactive) | 18.2 µM (inactive) | 23.4 µM (inactive) | 31.6 µM (inactive) | > 100 | 28.6 µM (inactive) | 10.6 µM (inactive) |  | 12.6 µM (inactive) | 57.7 µM (inactive) | 31.9 µM (inactive) | 19.2 µM (inactive) | > 100 µM (inactive) | 18.7 µM (inactive)
6 | O=C(O)C1CCCCC1c1c2ccc(=O)cc-2oc2cc(O)ccc12 (stereo not drawn) | 34.1 µM (inactive) | 12 µM (inactive) | 18 µM (inactive) | 31 µM (inactive) | 28.1 µM (inactive) | 38.4 µM (inactive) |  | 29.8 µM (inactive) | 47.6 µM (inactive) | 26.5 µM (inactive) | 34.6 | 48.6 µM (inactive) | 61 µM (inactive) | 31.8 µM (inactive) |  | 27.6 µM (inactive) | 42.8 µM (inactive) | 65.3 µM (inactive) | 43.9 µM (inactive) | 23 µM (inactive)
7 | COC(=O)CCSC1=CC(=O)c2nc3ccccc3c3ccnc1c23 | 13.6 µM (inactive) | 25.7 µM (inactive) | 15.7 µM (inactive) | 14.3 µM (inactive) |  | > 93.1 µM (inactive) | 33 µM (inactive) | 15.6 µM (inactive) | 17.7 µM (inactive) | 17.1 µM (inactive) | 13.6 | > 100 µM (inactive) | 15.3 µM (inactive) | 18.8 µM (inactive) | 5.32 µM (inactive) | 20.2 µM (inactive) | 4.49 µM (inactive) | 17.2 µM (inactive) | 15.3 µM (inactive) | 23.6 µM (inactive)
8 | O=C(NCC1Nc2ccncc2S(=O)(=O)N1)c1ccc(Br)cc1 (stereo not drawn) | > 100 µM (inactive) | 34.4 µM (inactive) |  | 51.9 µM (inactive) | 38.6 µM (inactive) | > 100 µM (inactive) | > 100 µM (inactive) | 66.1 µM (inactive) | 69.7 µM (inactive) | 35.9 µM (inactive) | 42.5 | 81.3 µM (inactive) | 25.1 µM (inactive) | > 100 µM (inactive) |  | 37 µM (inactive) |  | > 100 µM (inactive) | 59.8 µM (inactive) | 32.5 µM (inactive)
